Here are results for 21 compounds from patent US11008340B2, “Modulators of ROR-gamma” (Vitae Pharmaceuticals, LLC, priority 2015, dated 2021).

Structures are written as SMILES.

In experiment [1] the target is T1, full-length RORγt in Jurkat cells (Homo sapiens, UniProt P51449).
T1 construct: transcriptional activity of the full-length RORγt in Jurkat cells; host or cells: Jurkat cells (ATCC TIB-152)
T1 sequence (P51449 1-497 isoform P51449-2): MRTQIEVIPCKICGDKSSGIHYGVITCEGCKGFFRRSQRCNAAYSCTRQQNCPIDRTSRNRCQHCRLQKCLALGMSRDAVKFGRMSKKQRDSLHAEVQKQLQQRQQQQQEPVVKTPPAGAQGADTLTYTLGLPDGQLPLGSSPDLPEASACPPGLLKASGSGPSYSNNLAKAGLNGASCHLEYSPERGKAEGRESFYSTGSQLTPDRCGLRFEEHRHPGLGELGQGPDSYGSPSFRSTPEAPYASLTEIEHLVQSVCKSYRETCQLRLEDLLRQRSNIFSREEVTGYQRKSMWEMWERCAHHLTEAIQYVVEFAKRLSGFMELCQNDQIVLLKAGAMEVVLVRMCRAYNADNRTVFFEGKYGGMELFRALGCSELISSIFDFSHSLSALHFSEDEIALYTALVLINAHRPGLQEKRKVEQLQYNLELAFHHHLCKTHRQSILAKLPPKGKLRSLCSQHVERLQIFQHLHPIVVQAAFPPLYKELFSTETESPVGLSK
Description: RORγt 5×RORE Assay in Jurkat Cells (Assay 2). Format: cell-based. The note with it: 5×RORE luciferase reporter, read-out: Avg ROR γt/5x IC50. As for the experimental part: [formula] RORγt 5×RORE Assay in Jurkat Cells (Assay 2)
Compounds described herein were tested for RORγ inverse agonist activity in a cell-based, transcriptional activity assay. Secreted Nanoluc″ luciferase was used as a reporter for transcriptional activity of the full-length RORγt in Jurkat cells (ATCC, Cat. #TIB-152). A reporter plasmid was constructed by inserting 5 repeats of the ROR Response Element (RORE) […] (SEQ ID NO: 1) into a commercially available promoterless plasmid pNL1.3[secNluc] (Promega, Cat. #N1021) using KpnI and HindIII restriction sites. The expression plasmid for RORγt was purchased (Geneocopoeia, Cat. #EX-T6988-M02). Jurkat cells (30 million cells) were transfected with 11 μg of EX-T6988-MO2 and 26 μg of the reporter plasmid in OptiMEM® media using Lipofectamine LTX and Plus™ reagents (Life Technologies, Cat. #15338-100). After 5-6 hrs of incubation at 37° C./5% CO2, the cells were collected, resuspended in phenol-red free RPMI media containing 10% (v/v) delipidated FBS (Hyclone, Cat. #SH30855.03) and dispensed into 96-well clear bottom tissue culture plates (CoStar, Cat. #3603), at 80,000 cells per well. Tested compounds were added to the cells in the same media (final concentration of DMSO was 0.1% (v/v)), and the plates were incubated at 37° C./5% CO2 for 16-18 hrs. Luciferase activity in the conditioned supernatants was determined with NanoGlo® assay reagents (Promega, Cat. #N1130).

Experiment [2] concerns the target T2, recombinant RORγ Ligand Binding Domain (LBD) protein (Homo sapiens, UniProt P51449).
T2 construct: 6×His; GST
T2 sequence (P51449 269-508 limits assumed): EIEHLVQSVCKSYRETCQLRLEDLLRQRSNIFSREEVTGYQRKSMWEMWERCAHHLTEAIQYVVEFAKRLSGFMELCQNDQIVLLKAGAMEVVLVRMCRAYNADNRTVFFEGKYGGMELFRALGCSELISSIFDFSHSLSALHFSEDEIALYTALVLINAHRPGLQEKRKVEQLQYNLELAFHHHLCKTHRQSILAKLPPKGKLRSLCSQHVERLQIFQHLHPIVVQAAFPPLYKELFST
Description: Radio-Ligand RORγ Binding Assay (Assay 1). The note with it: radio-ligand competition, 25-hydroxy [26,27-3H]-cholesterol, RORγ LBD; read-out: Avg ROR Bind Ki. As for the experimental part:
Radio-Ligand RORγ Binding Assay (Assay 1)
Compounds described herein were tested for ability to bind to RORγ in a cell-free competition assay with commercially available radio-ligand (RL), 25-hydroxy [26,27-^3H]-cholesterol (PerkinElmer, Cat. #NET674250UC), for a ligand binding site on a recombinant RORγ Ligand Binding Domain (LBD) protein expressed as a 6×His-Glutathione-S-Transferase (GST) fusion. The assay was performed in 96-well SPA plates (PerkinElmer, Cat. #1450-401) in 50 mM HEPES buffer, pH 7.4, containing 150 mM NaCl, 5 mM MgCl2, 10% (v/v) glycerol, 2 mM CHAPS, 0.5 mM 3-octylglucopyranoside and 5 mM DTT. Tested compounds were dissolved in DMSO, and semi-log (3.162×) serial dilutions of the compounds were prepared in the same solvent. Two μL of the DMSO solutions were mixed with 28 μL of 8.6 nM 25-hydroxy [26,27-^3H]-cholesterol and 50 μL of 24 nM RORγ LBD. The plate was shaken at 700 rpm for 20 min and incubated for 10 min at rt, after which 40 μL of poly-Lys YSi SPA beads (PerkinElmer, Cat. #RPNQ0010) were added to achieve 50 μg of the beads per well. The plate was incubated on an orbital shaker for 20 min and then for 10 min without agitation at rt. SPA signal for tritium beta radiation was registered on PerkinElmer Microbeta plate reader. […] The percent inhibition vs. concentration data were fit into a four-parameter model, and IC50 values were calculated from the fit as the concentrations corresponding to the inflection points on the dose-response curves. Inhibitory constants (Ki) were calculated using the following equation, where [RL] is the concentration in the assay and KD is a dissociation constant of 25-hydroxy [26,27-^3H]-cholesterol: […]

By Ki is commonly meant a measure of affinity in units of concentration, obtained from inhibition or displacement. As to `CCOC(=O)c1cnc(N2CCc3cc(C(=O)NCc4ccc(S(=O)(=O)CC)cc4)ccc3C2C(C)C)nc1C(F)(F)F` (racemic) [Hy2A-5, ethyl 2-(6-((4-(ethylsulfonyl)benzyl)carbamoyl)-1-isopropyl-3,4-dihydroisoquinolin-2(1H)-yl)-4-(trifluoromethyl)pyrimidine-5-carboxylate], in experiment [1], the IC50 is 100 to 1000 nM. Also, the Ki in experiment [2] lay in the range of 100 to 1000 nM.

For `CCS(=O)(=O)c1ccc(CNC(=O)c2ccc3c(c2)CCN(Cc2ccc(Cl)cc2)C3C)cc1` (racemic) [Hy2A-11, 2-(4-chlorobenzyl)-N-(4-(ethylsulfonyl)benzyl)-1-methyl-1,2,3,4-tetrahydroisoquinoline-6-carboxamide], in experiment [1], the IC50 was 100 to 1000 nM. In addition, in experiment [2], the Ki was < 100 nM.

For `CCS(=O)(=O)c1ccc(CNC(=O)c2ccc3c(c2)CCN(Cc2ccc(F)cc2)C3C(C)C)cc1` (racemic) [Hy2A-13, N-(4-(ethylsulfonyl)benzyl)-2-(4-fluorobenzyl)-1-isopropyl-1,2,3,4-tetrahydroisoquinoline-6-carboxamide], in experiment [1], the IC50 was < 100 nM. Further, the Ki in experiment [2] is < 100 nM.

Take `CCS(=O)(=O)c1ccc(CNC(=O)c2ccc3c(c2)CCN(Cc2ccc(C#N)cc2)C3C(C)C)cc1` (racemic) [Hy2A-14, 2-(4-cyanobenzyl)-N-(4-(ethylsulfonyl)benzyl)-1-isopropyl-1,2,3,4-tetrahydroisoquinoline-6-carboxamide]: in experiment [1], the IC50 was < 100 nM. The Ki in experiment [2] is < 100 nM.

Regarding `CCS(=O)(=O)c1ccc(C(C)NC(=O)c2ccc3c(c2)CCN(Cc2cnc(C)cn2)C3C(C)C)cc1` (racemic) [Hy2A-18, N-(1-(4-(ethylsulfonyl)phenyl)ethyl)-1-isopropyl-2-((5-methylpyrazin-2-yl)methyl)-1,2,3,4-tetrahydroisoquinoline-6-carboxamide], the IC50 in experiment [1] was in the range of 100 to 1000 nM. Also, the Ki in experiment [2] is < 100 nM.

With `CCS(=O)(=O)c1ccc(CNC(=O)c2ccc3c(c2)CCN(Cc2ccc(Cl)cc2)C3C(C)C)cc1` (racemic) [Hy2A-19, 2-(4-chlorobenzyl)-N-(4-(ethylsulfonyl)benzyl)-1-isopropyl-1,2,3,4-tetrahydroisoquinoline-6-carboxamide], the IC50 in experiment [1] was < 100 nM. For the same compound, in experiment [2], the Ki is < 100 nM.

For the compound `CCS(=O)(=O)c1ccc(CNC(=O)c2ccc3c(c2)CCN(Cc2ccc(Cl)cn2)C3C(C)C)cc1` (racemic) [Hy2A-21, 2-((5-chloropyridin-2-yl)methyl)-N-(4-(ethylsulfonyl)benzyl)-1-isopropyl-1,2,3,4-tetrahydroisoquinoline-6-carboxamide], the IC50 in experiment [1] was < 100 nM. In addition, the Ki in experiment [2] was < 100 nM.

`CCS(=O)(=O)c1ccc(CNC(=O)c2ccc3c(OC4CCC(C(F)(F)F)CC4)nccc3c2)cc1` (single isomer, unassigned) [Hy1A-3.1, N-(4-(ethylsulfonyl)benzyl)-1-(((1s,4s)-4-(trifluoromethyl)cyclohexyl)oxy)isoquinoline-6-carboxamide]: in experiment [1], the IC50 was > 1000 nM. Further, the Ki in experiment [2] is < 100 nM.

With `CCS(=O)(=O)c1ccc(CNC(=O)c2ccc3c(OC4CCC(C(F)(F)F)CC4)nccc3c2)cc1` (single isomer, unassigned) [Hy1A-3.2, N-(4-(ethylsulfonyl)benzyl)-1-(((1r,4r)-4-(trifluoromethyl)cyclohexyl)oxy)isoquinoline-6-carboxamide], in experiment [1], the IC50 is > 1000 nM. Besides, in experiment [2], the Ki is < 100 nM.

With `CCS(=O)(=O)c1ccc([C@H](CO)NC(=O)c2ccc3c(OC[C@@H]4CC[C@@H](C(F)(F)F)OC4)nc(C)cc3c2)cc1` (single isomer, unassigned) [Hy1A-18.2], the IC50 in experiment [1] was < 100 nM. Besides, in experiment [2], the inhibitory constant (Ki) is < 100 nM.

With `CCS(=O)(=O)c1ccc([C@H](CO)NC(=O)c2ccc3c(OC[C@H]4CC[C@H](C(F)(F)F)CC4)nc(C)cc3c2)nc1` (single isomer, unassigned) [Hy1A-22.1], the IC50 in experiment [1] was < 100 nM. The Ki in experiment [2] is < 100 nM.

Consider `CCS(=O)(=O)c1ccc([C@@H](CO)NC(=O)c2ccc3c(OC[C@H]4CC[C@H](C(F)(F)F)CC4)nc(C)cc3c2)nc1` (single isomer, unassigned) [Hy1A-22.2], for which the IC50 in experiment [1] fell in the range of 100 to 1000 nM. For the same compound, the Ki in experiment [2] was < 100 nM.

In the case of `CCOC(=O)c1cnc(N2CCc3cc(C(=O)NCc4ccc(S(=O)(=O)CC)cc4)ccc3[C@@H]2C(C)C)nc1C(F)(F)F` (single isomer, unassigned) [Hy2A-5.1], the IC50 in experiment [1] lay within 100 to 1000 nM. For the same compound, the Ki in experiment [2] was < 100 nM.

On to `CCS(=O)(=O)c1ccc(CNC(=O)c2ccc3c(c2)CCN(Cc2ncc(C)cn2)[C@H]3C(C)C)cc1` (single isomer, unassigned) [Hy2A-12.1], for which the IC50 in experiment [1] lay within 100 to 1000 nM. In experiment [2], the Ki was 100 to 1000 nM.

As for `CCS(=O)(=O)c1ccc(CNC(=O)c2ccc3c(c2)CCN(Cc2ccc(C#N)cc2)[C@H]3C(C)C)cc1` (single isomer, unassigned) [Hy2A-15.1], the IC50 in experiment [1] was < 100 nM. The inhibition constant (Ki) in experiment [2] was < 100 nM.

`CCS(=O)(=O)c1ccc(CNC(=O)c2ccc3c(c2)CCN(Cc2ccc(C#N)cn2)[C@H]3C(C)C)cc1` (single isomer, unassigned) [Hy2A-16.1]: the IC50 in experiment [1] was < 100 nM. Also, the Ki in experiment [2] was < 100 nM.

Consider `CCS(=O)(=O)c1ccc(CNC(=O)c2ccc3c(c2)CCN(Cc2ccc(C#N)nc2)[C@H]3C(C)C)cc1` (single isomer, unassigned) [Hy2A-17.1], for which, in experiment [1], the IC50 is < 100 nM. Also, the Ki in experiment [2] is < 100 nM.

As to `CCS(=O)(=O)c1ccc(CNC(=O)c2ccc3c(c2)CCN(Cc2ccc(Cl)cc2)[C@H]3C(C)C)cc1` (single isomer, unassigned) [Hy2A-20.1], the IC50 in experiment [1] was < 100 nM. In experiment [2], the Ki was < 100 nM.

Consider `CCS(=O)(=O)c1ccc(CNC(=O)c2ccc3c(c2)CCN(Cc2ccc(Cl)cc2)[C@@H]3C(C)C)cc1` (single isomer, unassigned) [Hy2A-20.2], for which the IC50 in experiment [1] was 100 to 1000 nM. For the same compound, the Ki in experiment [2] is < 100 nM.

As to `CCS(=O)(=O)c1ccc(CNC(=O)c2ccc3c(c2)C(C)(C)CN(Cc2cnc(C)cn2)[C@H]3C(C)C)cc1` (single isomer, unassigned) [Hy2A-22.1], the IC50 in experiment [1] lay in the range of 100 to 1000 nM. The Ki in experiment [2] is < 100 nM.

As for `CCS(=O)(=O)c1ccc(CNC(=O)c2ccc3c(c2)C(C)(C)CN(Cc2ccc(C#N)cc2)C3C(C)C)cc1` (single isomer, unassigned) [Hy2A-23.1], the IC50 in experiment [1] was < 100 nM. The Ki in experiment [2] is < 100 nM.
